Measured values: US6191161A, “Prolylendopeptidase inhibitors” (Chinoin Gyogyszer es Vegyeszeti, priority 1995, dated 2001)

Each compound was assayed against T1, prolyl endopeptidase (PEP), rat brain extract (Rattus norvegicus, UniProt O70196) (assay: PEP activity measurement on rat brain extract). Details: Z-glycyl-prolyl-7-amino-4-methyl-coumarin 62.5 μM, room temperature, 15 min.
T1 construct: the supernatant, containing the enzyme, was collected; from tissue; host or cells: rat (Sprague-Dawley, male) whole brain without cerebellum, 40000 g supernatant
T1 sequence (O70196 1-710): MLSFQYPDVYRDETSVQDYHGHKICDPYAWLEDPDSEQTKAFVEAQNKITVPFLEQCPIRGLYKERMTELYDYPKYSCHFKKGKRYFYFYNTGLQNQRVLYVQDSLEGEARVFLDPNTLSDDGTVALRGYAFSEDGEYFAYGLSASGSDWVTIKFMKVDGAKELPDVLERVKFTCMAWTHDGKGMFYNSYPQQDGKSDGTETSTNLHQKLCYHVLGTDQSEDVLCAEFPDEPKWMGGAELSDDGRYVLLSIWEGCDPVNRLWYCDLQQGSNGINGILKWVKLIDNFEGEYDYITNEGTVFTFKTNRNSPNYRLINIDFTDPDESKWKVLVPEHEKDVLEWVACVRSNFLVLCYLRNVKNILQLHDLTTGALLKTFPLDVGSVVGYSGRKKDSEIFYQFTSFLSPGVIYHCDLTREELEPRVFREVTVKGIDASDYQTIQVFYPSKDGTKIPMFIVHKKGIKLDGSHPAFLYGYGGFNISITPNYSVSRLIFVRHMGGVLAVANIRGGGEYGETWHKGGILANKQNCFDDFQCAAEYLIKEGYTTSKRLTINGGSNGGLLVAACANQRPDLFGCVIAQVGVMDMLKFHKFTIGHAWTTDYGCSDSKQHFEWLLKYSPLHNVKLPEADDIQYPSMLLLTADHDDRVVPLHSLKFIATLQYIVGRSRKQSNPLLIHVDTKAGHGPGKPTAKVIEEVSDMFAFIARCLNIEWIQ
Format: biochemical, rat (Sprague-Dawley)
Experimental: PEP Activity Measurement on Rat Brain Extract:
After removal of the cerebellum whole brain of male (Sprague-Dawley, 180-200 g) rats was homogenized in a double volume of 0.1 M Tris-HCl, 1 mM EDTA buffer, pH=7.5 (PEP buffer). The homogenate was centrifuged for 30 min. at 4° C. at 40000 g and the supernatant, containing the enzyme, was collected. The pellet was resuspended in the same volume of buffer as in the first case and centrifuged again under the same conditions. The two supernatants were pooled and stored in 1 ml aliquots at -70° C. (for at least 3 months). The supernatant was thawn just before activity measurement and diluted in a 1:15 ratio with PEP buffer. […] The inhibitory effect of compounds was tested under the same conditions in the presence of 100 to 0.001 nM compound.

O=C([C@@H]1CSCN1C(=O)CCN1C(=O)c2cccc3cccc(c23)C1=O)N1CCSC1 [Example 123] and Cc1ccc2c(c1)C(=O)N(CCC(=O)N1CSC[C@H]1C(=O)N1CCSC1)C2=O [Example 31] are within 1.5-fold of each other in IC50: 0.278 nM for the first, 0.36 nM for the second.

O=C([C@@H]1C[S+]([O-])CN1C(=O)CCCN1C(=O)Nc2ccc([N+](=O)[O-])cc2S1(=O)=O)N1CCCC1 (stereo partly drawn) [Example 171] gave an IC50 of 0.451 nM.
